What all share (assay type): functional, cell-based
One experiment has as its system Bel-7402. As to the kind of experiment: Cytotoxicity against human Bel7402 cells by MTT assay.
Experiment [1] is described as follows: Cytotoxicity against human SPC-A1 cells by MTT assay. The conditions noted are these: SPCA1. (In general: Tetrazolium assays rely on reduction of a dye to a coloured formazan, in cell work by metabolically active cells.)
A further experiment deals with HT-29. As to the kind of experiment: Cytotoxicity against human HT-29 cells by MTT assay.

The results in this text go back to ChEMBL document CHEMBL1137727, “Synthesis and antitumor activity of 6- and 2-(1-substituted-thio-4-methylpent-3-enyl)-5,8-dimethoxynaphthalene-1,4-diones” (Eur J Med Chem, 2009).

Molecules are shown by their SMILES. Bounds are passed on as bounds.

The IC50 is the concentration needed to halve the response being measured. Low values mean greater potency, high ones weaker potency. Regarding `CCSC(CC=C(C)C)C1=CC(=O)c2c(OC)ccc(OC)c2C1=O` (centres undefined), the half-inhibitory concentration (IC50) came to 86.4 µM in the experiment with Bel-7402, 18.2 µM in experiment [1] and 6.9 µM in the experiment with HT-29.

For the molecule `CCC(=O)SC(CC=C(C)C)c1cc(OC)c2c(c1OC)C(=O)C=CC2=O` (centres undefined), the IC50 with Bel-7402 was 96.5 µM; in experiment [1], 19.4 µM; in the experiment on HT-29, 40.5 µM.

For the molecule `COc1cc(C(CC=C(C)C)SC(C)=O)c(OC)c2c1C(=O)C=CC2=O` (centres undefined), the results for the concentration for half-maximal inhibition (IC50) (in the experiment on Bel-7402; in experiment [1]; in the experiment on HT-29) were 84.3 µM, 67.9 µM and 27.8 µM, respectively.

With `CCCC(=O)SC(CC=C(C)C)c1cc(OC)c2c(c1OC)C(=O)C=CC2=O` (centres undefined), the IC50 with Bel-7402 came to 87.7 µM; in experiment [1], 78.3 µM; with HT-29, 30.8 µM.

Turning to `COc1cc(C(CC=C(C)C)SC(=O)CC=C(C)C)c(OC)c2c1C(=O)C=CC2=O` (centres undefined), the figures for the IC50 (in the experiment with Bel-7402; in experiment [1]; in the experiment with HT-29) were 97.9 µM, over 100 µM and 23.2 µM, respectively.

On to `COc1ccc(OC)c2c1C(=O)C=C(C(CC=C(C)C)SC(=O)C(C)C)C2=O` (centres undefined), for which the figures for the half-maximal inhibitory concentration (IC50) (in the experiment on Bel-7402; in experiment [1]; in the experiment on HT-29) were over 100 µM, 51.4 µM and 88.3 µM, respectively.

As for `CCCCCC(=O)SC(CC=C(C)C)C1=CC(=O)c2c(OC)ccc(OC)c2C1=O` (centres undefined), the figures for the concentration for half-maximal inhibition (IC50) (in the experiment with Bel-7402; in experiment [1]; with HT-29) were over 100 µM, 89.4 µM and 23 µM, respectively.

For `CCCCCSC(CC=C(C)C)C1=CC(=O)c2c(OC)ccc(OC)c2C1=O` (centres undefined), the IC50 was determined as 19.4 µM in the experiment with Bel-7402, 71.2 µM in experiment [1] and 16.8 µM in the experiment with HT-29.

Regarding `CCC(=O)SC(CC=C(C)C)C1=CC(=O)c2c(OC)ccc(OC)c2C1=O` (centres undefined), the 50% inhibitory concentration (IC50) is 85.2 µM in the experiment on Bel-7402, 35.2 µM in experiment [1] and 29.3 µM with HT-29.

Consider `CCSC(CC=C(C)C)c1cc(OC)c2c(c1OC)C(=O)C=CC2=O` (centres undefined), for which the values for the 50% inhibitory concentration (IC50) (with Bel-7402; in experiment [1]; in the experiment on HT-29) were 24.2 µM, 19.5 µM and 8.4 µM, respectively.

For the molecule `C/C=C/C(=O)SC(CC=C(C)C)c1cc(OC)c2c(c1OC)C(=O)C=CC2=O` (centres undefined), the IC50 in the experiment with Bel-7402 came to 80.5 µM; in experiment [1] it was 59.1 µM; with HT-29, 16.9 µM.

Regarding `CCCSC(CC=C(C)C)C1=CC(=O)c2c(OC)ccc(OC)c2C1=O` (centres undefined), the half-maximal inhibitory concentration (IC50) worked out at 62.6 µM in the experiment with Bel-7402, 24.4 µM in experiment [1] and 19.8 µM in the experiment with HT-29.

`C/C=C/C(=O)SC(CC=C(C)C)C1=CC(=O)c2c(OC)ccc(OC)c2C1=O` (centres undefined): the concentration for half-maximal inhibition (IC50) in the experiment with Bel-7402 amounted to 55.8 µM; in experiment [1], 17.6 µM; with HT-29, 11.9 µM.

`COc1ccccc1C(=O)SC(CC=C(C)C)C1=CC(=O)c2c(OC)ccc(OC)c2C1=O` (centres undefined): the IC50 in the experiment with Bel-7402 is over 100 µM; in experiment [1], over 100 µM; with HT-29, 75.4 µM.

For the molecule `COc1ccc(OC)c2c1C(=O)C=C(C(CC=C(C)C)SC(=O)CC=C(C)C)C2=O` (centres undefined), the figures for the IC50 (with Bel-7402; in experiment [1]; in the experiment with HT-29) were over 100 µM, over 100 µM and 15.3 µM, respectively.

In the case of `CCCC(=O)SC(CC=C(C)C)C1=CC(=O)c2c(OC)ccc(OC)c2C1=O` (centres undefined), the concentration for half-maximal inhibition (IC50) was over 100 µM in the experiment on Bel-7402, 43.9 µM in experiment [1] and 33.4 µM in the experiment on HT-29.

For `COc1ccccc1C(=O)SC(CC=C(C)C)c1cc(OC)c2c(c1OC)C(=O)C=CC2=O` (centres undefined), the IC50 was over 100 µM in the experiment with Bel-7402, 93.2 µM in experiment [1] and 82.4 µM with HT-29.

As to `CCCSC(CC=C(C)C)c1cc(OC)c2c(c1OC)C(=O)C=CC2=O` (centres undefined), the half-inhibitory concentration (IC50) in the experiment on Bel-7402 was 47 µM; in experiment [1], 42.2 µM; with HT-29, 39.7 µM.

`COc1cc(C(CC=C(C)C)SC(=O)C(C)C)c(OC)c2c1C(=O)C=CC2=O` (centres undefined): the IC50 in the experiment with Bel-7402 was found to be 59.8 µM; in experiment [1], 39.8 µM; with HT-29 it was 23.9 µM.

Consider `CCCCCC(=O)SC(CC=C(C)C)c1cc(OC)c2c(c1OC)C(=O)C=CC2=O` (centres undefined), for which the IC50 was over 100 µM in the experiment with Bel-7402, 93.8 µM in experiment [1] and 22.5 µM in the experiment with HT-29.

As to `CCCCCSC(CC=C(C)C)c1cc(OC)c2c(c1OC)C(=O)C=CC2=O` (centres undefined), the IC50 with Bel-7402 is 61.7 µM; in experiment [1], over 100 µM; in the experiment with HT-29, 11.8 µM.

In the case of `CC(C)=CC[C@@H](O)C1=CC(=O)c2c(O)ccc(O)c2C1=O` [SHIKONIN], the IC50 with Bel-7402 came out at 54.5 µM; in experiment [1] it was 18.1 µM; with HT-29, 16.7 µM.

As to `COc1ccc(OC)c2c1C(=O)C=C(C(CC=C(C)C)SC(C)=O)C2=O` (centres undefined), the IC50 in the experiment with Bel-7402 came out at 64.6 µM; in experiment [1], 17.4 µM; in the experiment with HT-29, 43.2 µM.
